Assays:
Format in all cases: cell-based
Details in all cases: for SI / Qa: A = MIT; for Qa: A alone where Qb = 0
[1] = test system: Candida albicans (C. albicans—ATCC 10231); experiment: Synergy test, microtiter plate high resolution MIC assay, PDB medium, yeast
From the text: (§1) One measure of synergism is the industrially accepted method described by Kull, F. C.; Eisman, P. C.; Sylwestrowicz, H. D. and Mayer, R. L., in Applied Microbiology 9:538-541 (1961), using the ratio determined by the formula: Qa/QA+Qb/QB=Synergy Index(“SI”) wherein: • QA=concentration of compound A (first component) in ppm, acting alone, which produced an end point (MIC of Compound A). • Qa=concentration of compound A in ppm, in the mixture, which produced an end point. • QB=concentration of compound B (second component) in ppm, acting alone, which produced an end point (MIC of Compound B). • Qb=concentration of compound B in ppm, in the mixture, which produced an end point.
(§2) When the sum of Qa/QA and Qb/QB is greater than one, antagonism is indicated. […] The lower the SI, the greater is the synergy shown by that particular mixture. The minimum inhibitory concentration (MIC) of a microbicide is the lowest concentration tested under a specific set of conditions that prevents the growth of the tested microorganisms.
(§3) Synergy tests were conducted using standard microtiter plate assays with media designed for optimal growth of the test microorganism. Minimal salt medium supplemented with 0.2% glucose and 0.1% yeast extract (M9GY medium) was used for testing bacteria; Potato Dextrose Broth (PDB medium) was used for testing yeast and mold. In this method, a wide range of combinations of microbicides and other personal care raw materials was tested by conducting high resolution MIC assays in the presence of various concentrations of CMIT/MIT, MIT, or BIT. High resolution MICs were determined by adding varying amounts of microbicide to one column of a microtitre plate and doing subsequent […] dilutions using an automated liquid handling system to obtain a series of endpoints ranging from 2 ppm to 10,000 ppm active ingredient.
(§4) The synergy of the combinations of the present invention was determined against a bacterium, Escherichia coli (E. coli—ATCC #8739), a yeast, Candida albicans (C. albicans—ATCC 10231), and a mold, Aspergillus niger (A. niger—ATCC 16404). The bacteria were used at a concentration of about 5×10^6 bacteria per mL and the yeast and mold at 5×10^5 fungi per mL. These microorganisms are representative of natural contaminants in many consumer and industrial applications. […] (yeast and mold) or 30° C. (bacteria).

[2] = test system: Aspergillus niger (A. niger—ATCC 16404); experiment: Synergy test, microtiter plate high resolution MIC assay, PDB medium, mold
From the text: as §1, §2, §3, §4

[3] = test system: Escherichia coli (E. coli—ATCC #8739); experiment: Synergy test, microtiter plate high resolution MIC assay, M9GY medium, bacterium
From the text: as §1, §2, §3, §4

[4] = C. albicans 10231 - PDB (1 day), B = Propylene glycol monolaurate
[5] = C. albicans 10231 - PDB (2 days), B = Glyceryl mono dicaprylate
[6] = C. albicans 10231 - PDB (6 days), B = Ethylhexylglycerin
[7] = C. albicans 10231 - PDB (6 days), B = Glyceryl caprate
[8] = C. albicans 10231 - PDB (6 days), B = Lauric arginate
[9] = C. albicans 10231 - PDB (6 days), B = Myristamidopropyl PG-dimonium chloride phosphate
[10] = C. albicans 10231 - PDB (6 days), B = Propylene glycol caprylate
[11] = A. niger 16404 - PDB (3 days), B = Myristamidopropyl PG-dimonium chloride phosphate
[12] = A. niger 16404 - PDB (3 days), B = Propylene glycol caprylate
[13] = A. niger 16404 - PDB (10 days), B = Ethylhexylglycerin
[14] = A. niger 16404 - PDB (10 days), B = Glyceryl caprate
[15] = A. niger 16404 - PDB (10 days), B = Glyceryl mono dicaprylate
[16] = A. niger 16404 - PDB (10 days), B = Lauric arginate
[17] = A. niger 16404 - PDB (10 days), B = Propylene glycol monolaurate
[18] = E. coli 8739 - M9GY (1 day), B = Glyceryl caprate
[19] = E. coli 8739 - M9GY (1 day), B = Glyceryl mono dicaprylate
[20] = E. coli 8739 - M9GY (1 day), B = Lauric arginate
[21] = E. coli 8739 - M9GY (1 day), B = Myristamidopropyl PG-dimonium chloride phosphate
[22] = E. coli 8739 - M9GY (1 day), B = Propylene glycol caprylate
[23] = E. coli 8739 - M9GY (1 day), B = Propylene glycol monolaurate
[24] = E. coli 8739 - M9GY (6 days), B = Ethylhexylglycerin

Cn1sccc1=O [MIT, 2-methyl-4-isothiazolin-3-one]
400 ppm: Qa [2, 11] | Qa [2, 12]
40.00 ppm: Qa [3, 24]
200 µg/mL: MIC ([1]; Candida albicans, ATCC10231, 144 h, read-out: MIC of the component acting alone (QA or QB))
1.00: Synergy Index (SI) = Qa/QA+Qb/QB ([1]; C. albicans 10231, PDB, 6 days) | SI [1, 4] | SI [1, 5] | SI [1, 6] | SI [1, 7] | SI [1, 8] | SI [1, 9] | SI [1, 10] | Synergy Index (SI) = Qa/QA+Qb/QB ([2]; A. niger 16404, PDB, 10 days) | SI [2, 11] | SI [2, 12] | SI [2, 13] | SI [2, 14] | SI [2, 15] | SI [2, 16] | SI [2, 17] | Synergy Index (SI) = Qa/QA+Qb/QB ([3]; E. coli 8739, M9GY, 1 day) | SI [3, 18] | SI [3, 19] | SI [3, 20] | SI [3, 21] | SI [3, 22] | SI [3, 23] | SI [3, 24]
500 ppm: Qa [2, 14] | Qa [2, 15]
30 µg/mL: MIC ([3]; Escherichia coli, ATCC8739, 24 h, read-out: MIC of the component acting alone (QA or QB))
750.00 ppm: Qa [2, 17]
200.00 ppm: MIC of the component acting alone (QA or QB) ([1]; C. albicans 10231, PDB, 6 days, 25° C.) | Qa [1, 6] | Qa [1, 7] | Qa [1, 8] | Qa [1, 9] | Qa [1, 10]
500.00 ppm: MIC of the component acting alone (QA or QB) ([2]; A. niger 16404, PDB, 10 days, 25° C.)
30.00 ppm: MIC of the component acting alone (QA or QB) ([3]; E. coli 8739, M9GY, 1 day, 30° C.) | Qa [3, 18] | Qa [3, 19] | Qa [3, 20] | Qa [3, 21] | Qa [3, 22] | Qa [3, 23]
100.00 ppm: Qa [1, 4]
750 ppm: Qa [2, 13] | Qa [2, 16]
150.00 ppm: Qa [1, 5]
500 µg/mL: MIC ([2]; Aspergillus niger, ATCC16404, 240 h, read-out: MIC of the component acting alone (QA or QB))

From patent publication US8778982B2, “Synergistic microbicidal compositions” (Rohm and Haas Company, priority 2007, dated 2014)
